Data taken from paper PMC11546719, “Immune Modulatory Profile of the Pateamines PatA and Des-Methyl Des-Amino PatA” (International Journal of Molecular Sciences, 2024).

Tests used:
[1] = Transport assay, porous membrane without cell barrier; format: in vitro ADME; conditions: 100 nM; for Transport rate without a cell barrier: apical to basolateral
B cells = assay: Energy metabolism (Seahorse OCR/ECAR) in B cells; format: cell-based, human; conditions: 5 days, PatA, DMDA 0.25-0.5 nM, silvestrol 5 nM, rapamycin 10 ng/mL
Description: The determination of the energy metabolism was performed as described previously. Briefly, for the analysis of the extracellular acidification rate (ECAR) and the oxygen consumption rate (OCR) for human B cells, Tcells, M1 MdMs and M2 MdMs, the Seahorse XFe96 FluxPak (Agilent, Waldbronn, Germany) was used as recommended by the manufacturer. MdMs were polarized to M1 or M2 MdMs in the presence of PatA (0.5, 2.5, 5 nM), DMDA (0.5, 2.5, 5 nM) or vehicle (DMSO) for 48 h or 24 h, respectively. T cells were activated in the presence of PatA (0.25, 0.5 nM), DMDA (0.25, 0.5 nM), silvestrol or DMSO. B cells were activated in the presence of PatA (0.25, 0.5 nM), DMDA (0.25, 0.5 nM), silvestrol (5 nM) or rapamycin (10 ng/mL positive control). Cells were washed with Seahorse XF RPMI medium pH 7.4 (Agilent, Waldbronn, Germany) and OCR and ECAR were measured as octuplicates for a period of 160 min using the Seahorse XFe96 Analyzer (Agilent, Waldbronn, Germany) and analyzed by Wave Software 2.6.3.8 (Agilent, Waldbronn, Germany). The relative values were calculated by relating the OCR or ECAR values obtained after 50 min to the values of the vehicle control (not stimulated).

TK6 cells = assay: Micronuclei assay; format: cell-based, human; conditions: 4 h incubation then 44 h
Description: The In-Vitro Micronuclei Plus assay (Becton Dickinson, Heidelberg, Germany) was performed as described by the supplier. Briefly, 2 × 10^4 TK6 cells were incubated with increasing concentrations of PatA, DMDA and silvestrol for 4 h. The cells were washed with PBS and incubated in fresh medium (without test substance) for 44 h. The cells were centrifuged (300× g) for 5 min, the […] and placed on ice for 20 min. Then, 50 µL of Complete Nucleic Acid Dye A Solution was added. The plate was placed on ice and exposed to visible light for 30 min. The Nucleic Acid Dye A solution was removed and the cells were washed with 0.15 mL of cold 1x Buffer Solution. An amount of 100 µL Complete Lysis Solution 1 was added, followed by gently mixing of the plate for 5 s and incubation of 1 h in the dark at 37 °C. Then, 100 µL Complete Lysis Solution 2 was added and incubated for 30 min in the dark at room temperature. The cells were analyzed via flow cytometry with the MACSQuant 10 (Miltenyi GmbH, Bergisch Gladbach, Germany).

Caco-2 cell barrier = assay: Transport assay, Caco-2 cell barrier; format: in vitro ADME; conditions: for Permeability / transport rate across Caco-2 cell barrier (in words): 4 and 24 h, PatA, DMDA 5, 50, 100 nM, controls 200 µM
Description: The transport assay was achieved as described previously. Briefly, 1 × 10^5 CaCo-2 or 5 × 10^4 Calu-3 cells in 300 µL medium were seeded on 24-well ThinCerts (pre-coated with FCS for 60 min) and in the lower compartment, 1 mL culture medium per well was added. The Caco-2 cell barrier was generated over 20 days and the Calu-3 barrier was generated over 14 days. DMDA (0 nM, 5 nM, 50 nM, 100 nM), PatA (0 nM, 5 nM, 50 nM, 100 nM), 200 µM famotidine, 200 µM lucifer yellow or 200 µM carbamazepine diluted in medium was added to the apical compartment and incubated for 4 h or 24 h. The medium from the basolateral and apical compartment was collected and stored at −20 °C and analyzed using LC-MS/MS. To obtain the transport rate, the drug amount in the basolateral compartment at 4 h or 24 h was related to the drug amount in the apical compartment (0 h).
The detailed method for the analysis of DMDA, PatA, carbamazepine and famotidine using LC-MS/MS is described in the Supplementary Materials.

Human primary B cells = assay: B cell activation with IL-21, sCD40L, CpG and anti-IgM; format: cell-based; conditions: for Cell viability (zombie staining) / B cell activation (formation of plasma cells, proliferation, release of IgGs): activated B cells, 5 days; for Effect on the release of inflammatory markers, B Cells: summary table
Description: B cells were activated as described by Khoenkhoen et al.. […].
Surface marker analysis was performed as described previously. Briefly, 1.5–2 × 10^5 cells of each sample were blocked with human FcR Blocking Reagent (15 min, 4 °C). […]. Afterwards, samples were stained with a mixture of different surface marker antibodies (15 min, 4 °C) and measured with MACSQuant® Analyzer 10 flow cytometer. For M1-/M2-MdMs anti-CD86, anti-CD14, anti-HLA-DR, anti-CD206, anti-CD80, anti-TREM2 and anti-CD163 were used. For T cells, anti-CD69, anti-CD54, anti-CD49a, anti-CD18, anti-CD134, anti-CD154, anti-CD3 and anti-CD25 were analyzed. For B cells, anti-CD27, anti-CD19 and anti-CD38 were applied. For T cell and B cell proliferation assay, freshly isolated T and B cells were stained with CTV and detected using flow cytometry. Naïve B cells were characterized as CD19^+CD27^lowCD38^med, memory B cells as CD19^+CD27^med CD38^low and plasma cells as CD27^+CD38^+ cells. M1 MdMs and M2 MdMs cell population was gated using FSC/SSC channel. T cells were gated as CD3^+CD25^+ positive cells. The geometric mean of the fluorescent intensity was calculated using FlowJo software v10 (Treestar, Ashland, […], USA). Fold induction of surface marker expression was calculated using the DMSO-treated cells as the control.
For determination of cytokine concentrations in the supernatant of humane immune cells, cytometric bead array (BD Biosciences, Heidelberg, Germany) for IL-10, IL-17, IL-8, IL-6, IFN-γ and CCL2 was used. For the detection of CCL18, CCL17, IgG, IgA and PGE2, an ELISA was performed. The cytometric bead arrays and the ELISAs were performed according to the protocol of the supplier.

Structure (SMILES) | Transport rate without a cell barrier ([1]; 4 h) | Stability in the media under transport assay conditions ([1]; inferred from transport without cell barrier) | Energy metabolism: glycolysis (ECAR) and oxidative phosphorylation (OCR) (B cells) | Genotoxic potential: micronuclei (clastogenic) and hypodiploid cells (aneugenic) (TK6 cells; 10 nM) | Permeability / transport rate across Caco-2 cell barrier (in words) (Caco-2 cell barrier) | Cell viability (zombie staining) (Human primary B cells) | B cell activation (formation of plasma cells, proliferation, release of IgGs) (Human primary B cells; 0.5 nM) | Effect on the release of inflammatory markers, B Cells (Human primary B cells) | Transport rate without a cell barrier ([1]; 24 h) | Genotoxic potential: micronuclei (clastogenic) and hypodiploid cells (aneugenic) (TK6 cells) | Transport rate with Caco-2 cell barrier (Caco-2 cell barrier; 100 nM, 24 h) | B cell activation (formation of plasma cells, proliferation, release of IgGs) (Human primary B cells)
CC(/C=C/C(C)=C/[C@@H]1Cc2nc(cs2)[C@@H](C)C[C@@H](N)CC(=O)O[C@@H](C)C/C(C)=C/C=C\C(=O)O1)=C\CN(C)C [PatA, pateamine A] | about 28% | probably unstable in the media | induced oxidative phosphorylation and glycolysis | induced clastogenic effects | no permeability was detected | did not reduce cell viability | showed similar effects to those of rapamycin | IgA↓, IgG↓ | – | – | – | –
CC(/C=C/C(C)=C/[C@@H]1Cc2nc(cs2)CCCCC(=O)O[C@@H](C)C/C(C)=C/C=C\C(=O)O1)=C\CN(C)C [DMDA, des-methyl des-amino pateamine A] | about 28% | – | induced only glycolysis | – | exhibited low permeability | did not reduce cell viability | – | No effect | ~41% | induced neither clastogenic nor aneugenic effects | about 6% | did not prevent B cell activation
